Measured values taken from PubChem BioAssay (NCI).
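In this assay, cells in 96-well plates receive the compound at five concentrations for 48 hours. Endpoints are linearly interpolated between the surrounding concentrations. GI50 is the concentration that inhibits growth by half. At the TGI there is no net growth.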

Tests used:
Experiment in all cases: DTP human tumour cell line panel, 48 h
SW-620 colon = system: SW-620 colon
OVCAR-8 ovarian = system: OVCAR-8 ovarian
COLO 205 colon = system: COLO 205 colon
TK-10 renal = system: TK-10 renal
RXF 393 renal = system: RXF 393 renal
LOX IMVI melanoma = system: LOX IMVI melanoma
SK-OV-3 ovarian = system: SK-OV-3 ovarian
SNB-75 CNS = system: SNB-75 CNS
CAKI-1 renal = system: CAKI-1 renal
U251 CNS = system: U251 CNS

SMILES	TGI (SW-620 colon) [µM]	TGI (OVCAR-8 ovarian) [µM]	TGI (COLO 205 colon) [µM]	TGI (TK-10 renal) [µM]	TGI (RXF 393 renal) [µM]	TGI (LOX IMVI melanoma) [µM]	TGI (SK-OV-3 ovarian) [µM]	TGI (SNB-75 CNS) [µM]	TGI (CAKI-1 renal) [µM]	TGI (U251 CNS) [µM]	GI50 (SW-620 colon) [µM]	GI50 (OVCAR-8 ovarian) [µM]	GI50 (COLO 205 colon) [µM]	GI50 (TK-10 renal) [µM]	GI50 (RXF 393 renal) [µM]	GI50 (LOX IMVI melanoma) [µM]	GI50 (SK-OV-3 ovarian) [µM]	GI50 (SNB-75 CNS) [µM]	GI50 (CAKI-1 renal) [µM]	GI50 (U251 CNS) [µM]
COc1cc([C@@H]2c3cc4c(cc3[C@@H](Nc3ccc(NC(=O)c5cc(NC(=O)c6cc([N+](=O)[O-])cn6C)cn5C)cc3)[C@H]3COC(=O)[C@H]23)OCO4)cc(OC)c1O	> 62.5	89.8	17.8	> 100	> 62.3	> 44.1	> 55.7	37	> 28.5	26.2										
O=[N+]([O-])c1cc(Cl)ccc1S(=O)(=O)c1cc(Cl)cc2c1NCCC2	> 100	> 100	> 100	> 100	> 100	> 100	> 100	> 100	> 100											
Cn1c(=O)c2[nH]c(-n3nc(-c4ccccc4)cc3N)nc2n(C)c1=O		97.7	88.7	> 100	> 100		20.4		15	> 100										
Oc1ccccc1C=Nc1ccccc1N=Cc1ccccc1O	> 100	> 100	> 100	> 100		> 100	> 100			> 100										
COC1CCC(n2c([C@@H]3CCCC(=O)N3c3ccc(F)c(F)c3)nc3cc(-c4c(C)noc4C)ccc32)CC1 (stereo partly drawn)	> 100	40.8	17.8	12.7	17.7	16.9	18.8	0.961	12.7	23.8	19.1	10.2	2.16	2.46	4.82	4.13	4.09	0.0108	0.64	10.2
CC1=CC(=O)/C(=C/N2CCNC2=S)C(=O)O1	> 100	> 100	> 100	> 100	> 100	> 100	> 100	> 100	> 100	> 100										
CC(C)C[C@H](NC(=O)[C@H](CCc1ccccc1)NC(=O)c1ccc2ccccc2n1)B(O)O	< 0.0338	0.86	5.18	0.407	< 0.017	0.247	10.2	0.175	4.73	6.11										
CC1(CO)C(=O)OC12CCCCC2 (stereo not drawn)	> 100	> 100	> 100	> 100		> 100	> 100	> 100	> 100											
CCOC(=O)O/N=C1/C(c2c(O)[nH]c3ccccc23)=Nc2ccccc21	> 100	30.8	28.8	24	6.16	26.6	7.07	11.4	14.5	> 100										
COc1c(Cl)c(Cl)c(OC)c2c1C(=O)C=CC2=O	31.2	32.1	31.7	41.9	30.9	30.2	> 100	80	59.1	40.4										
O=[N+]([O-])c1ccc(-[n+]2ccc3ccccc3c2)c([N+](=O)[O-])c1		6.74	6.29	3.52	3.83	3.67	27.1	8.74	8.74	17.7										
O=[N+]([O-])c1ccc(Cl)cc1N/N=C/c1cccs1	> 100	> 100	> 100	> 100	> 100		> 100	> 100	> 100	> 100										
NC(=S)N/N=C(\C(=O)Nc1ccc(Cl)c(Cl)c1)C1=NN(c2ccccc2)C(c2cccc([N+](=O)[O-])c2)CC1=O (stereo not drawn)	35.5	> 100	36.3	> 100		30.8	> 100	99.7	> 100	17										
C/C(=N\NC(=O)N/N=C(\C)c1ccccn1)c1ccccn1	> 100	> 100	> 100		> 100	> 100	> 100	> 100	> 100	> 100										
N#CI1OC(C(F)(F)F)(C(F)(F)F)c2ccccc21		30.5	26.8	39.1	32.4	43.3	> 100	32.4	28	52.5										
COc1ccc(CCC2NCCc3cc(OC)c(OC)cc32)cc1 (stereo not drawn)	> 100	> 100		> 100				> 100	> 100	> 100										
CCOC(=O)C12C(=O)CCN1CCc1ccccc1C2C (stereo not drawn)	> 100	> 100	> 100	> 100	> 100	> 100	> 100		> 100	> 100										
Cc1ccc(C2(c3ccc(C)c(O)c3C)CCN(C)CC2)c(C)c1O	> 100	> 100		74.4	> 100	> 100		> 100	> 100	> 100										
CCOC(=O)CN(Cc1ccccc1)Cc1c(C(=O)c2ccccc2)c2ccccc2n1C(=O)c1ccccc1	> 100	> 100	> 100	> 100		> 100	> 100	> 100	> 100	> 100										
Cc1nc2sccn2c1C(=O)OCCOCCOCCOCCOC(=O)c1c(C)nc2sccn12	> 100	> 100	> 100	> 100	> 100	> 100			> 100	> 100										
CCc1cc2c(oc3c4ccccc4ccc23)c(=O)[nH]1	> 10	> 10		> 10	> 10	> 10	> 10	> 10		> 10										
CN(C)/C=N/S(=O)(=O)c1nn2c(C=O)c(-c3cc4ccccc4oc3=O)nc2s1	> 29.4	> 42		14.8	9.97	15.4	> 100	> 82.1	4.95	> 42.6										
